In brackets after ≈: the same amount, converted by molar mass. Where a SMILES comes first, the peptide text is derived from it.
Key:
E. coli MC1061 = assay: Spot dilution assay of E. coli producing the ubonodin variant from pUboABC; format: cell-based; details: variant in pUboABC backbone in E. coli MC1061, induction with 100 μM IPTG, ten-fold serial dilutions, biological duplicates
Summary of the method: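 E. coli MC1061 carrying the plasmids was grown at 37 °C in LB with 100 μg/mL ampicillin to OD600 0.3, then induced with 100 μM IPTG. Samples taken before induction and at later timepoints were PBS-washed, spotted as ten-fold dilutions on ampicillin/0.2% glucose LB plates, and imaged after 16 h at 37 °C.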

B. cenocepacia AU0756 [1] = tested on: B. cenocepacia AU0756
Summary of the method: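 Ubonodin variants were tested by broth microdilution following CLSI guidelines against clinical Burkholderia cenocepacia isolates AU0756 and AU24362.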

B. cenocepacia AU0756 [2] = tested on: B. cenocepacia AU0756; set-up: method as in PMID 35802499; details: spot-on-lawn assay; cited from earlier work
Excerpt: We proceeded to test the antimicrobial activity of the selected variants against two clinical isolates of the Bcc, B. cenocepacia AU0756 and B. cenocepacia AU24362, in broth microdilution assays. […] We revisited these measurements using broth microdilution assays following the Clinical & Laboratory Standards Institute (CLSI) standard.

E. coli RNAP = details: cited from earlier work

CC[C@H](C)[C@@H]1NC(=O)[C@H](CO)NC(=O)CNC(=O)[C@H](CC(=O)O)NC(=O)CNC(=O)CNC(=O)CC[C@@H](C(=O)N[C@@H](Cc2ccc(O)cc2)C(=O)N[C@@H](Cc2ccccc2)C(=O)N[C@@H](CC(N)=O)C(=O)N[C@@H](CCCNC(=N)N)C(=O)N2CCC[C@H]2C(=O)N[C@@H](CCSC)C(=O)N[C@@H](Cc2c[nH]cn2)C(=O)N[C@H](C(=O)N[C@@H](Cc2c[nH]cn2)C(=O)N[C@@H](CC(=O)O)C(=O)N[C@@H](Cc2c[nH]c3ccccc23)C(=O)N[C@@H](CCC(N)=O)C(=O)N[C@H](C(=O)N[C@@H](CCSC)C(=O)N[C@@H](CC(=O)O)C(=O)N[C@@H](CO)C(=O)NCC(=O)N[C@@H](Cc2ccc(O)cc2)C(=O)N[C@@H](Cc2ccc(O)cc2)C(=O)NCC(=O)O)[C@@H](C)CC)[C@@H](C)CC)NC(=O)[C@H](C)NC1=O [WT, ubonodin] (HELM PEPTIDE1{G.G.D.G.S.I.A.E.Y.F.N.R.P.M.H.I.H.D.W.Q.I.M.D.S.G.Y.Y.G}$PEPTIDE1,PEPTIDE1,1:R1-8:R3$$$V2.0; C-terminus assumed)
Inhibits Growth (E. coli MC1061): Yes | B. cenocepacia AU0756 MIC (B. cenocepacia AU0756 [1]): 0.25 to 0.5 µM | MIC against strain AU0756 (B. cenocepacia AU0756 [2]): 10 µM (≈ 32 µg/mL) | Inhibition of E. coli RNAP in vitro (E. coli RNAP): inhibits E. coli RNAP in vitro

From PMC10037499, “High-Throughput Screen Reveals the Structure–Activity Relationship of the Antimicrobial Lasso Peptide Ubonodin” (ACS Central Science, 2023)
